In the Kinase Knowledgebase extract (Sharma et al. 2016):

Target: EGFR (Balb/c mice) (UniProt P00533)
Conditions: balb/mk cells

Row | IC50 [nM] | SMILES
1 | 100 to 1000 | CCc1csc(-c2cc3c(Nc4cccc(Cl)c4)ncnc3[nH]2)n1
2 | 100 to 1000 | CCNC(=O)Nc1ccc(-c2cc3c(Nc4cccc(Cl)c4)ncnc3[nH]2)cc1
3 | 100 to 1000 | CCNC(=S)Nc1ccc(-c2cc3c(Nc4cccc(Cl)c4)ncnc3[nH]2)cc1
4 | 100 to 1000 | CS(=O)(=O)Nc1ccc(-c2cc3c(Nc4cccc(Cl)c4)ncnc3[nH]2)cc1
5 | 100 to 1000 | COc1ccc(CNCc2cc3c(Nc4cccc(Cl)c4)ncnc3[nH]2)cc1
6 | 100 to 1000 | C[C@@H](Nc1ncnc2[nH]c(-c3ccc(N=CN(C)C)cc3)cc12)c1ccccc1
7 | 100 to 1000 | CCOC(=O)Nc1ccc(-c2cc3c(Nc4cccc(Cl)c4)ncnc3[nH]2)cc1
8 | 100 to 1000 | ON=Cc1cc2c(Nc3cccc(Cl)c3)ncnc2[nH]1
9 | 100 to 1000 | CNC(=S)Nc1ccc(-c2cc3c(N[C@H](C)c4ccccc4)ncnc3[nH]2)cc1
10 | 100 to 1000 | Cc1nc(-c2cc3c(Nc4cccc(Cl)c4)ncnc3[nH]2)sc1C
11 | 100 to 1000 | CCS(=O)(=O)Nc1ccc(-c2cc3c(N[C@H](C)c4ccccc4)ncnc3[nH]2)cc1
12 | 100 to 1000 | Clc1cccc(Nc2ncnc3[nH]c(-c4ccc(N=CN5CCCCC5)cc4)cc23)c1
13 | 100 to 1000 | CCS(=O)(=O)Nc1cccc(-c2cc3c(Nc4cccc(Cl)c4)ncnc3[nH]2)c1
14 | 100 to 1000 | CON=Cc1cc2c(Nc3cccc(Cl)c3)ncnc2[nH]1
15 | 100 to 1000 | CCNC(=O)Nc1cccc(-c2cc3c(N[C@H](C)c4ccccc4)ncnc3[nH]2)c1
16 | 100 to 1000 | O=C(c1ccc(-c2cc3c(Nc4cccc(Cl)c4)ncnc3[nH]2)cc1)N1CCOCC1
17 | 100 to 1000 | CCN(C=Nc1cccc(-c2cc3c(Nc4cccc(Cl)c4)ncnc3[nH]2)c1)CC

Target: EGFR (Balb/c mice) (UniProt P00533)
Conditions: balb/c3t3

Row | IC50 [nM] | SMILES
18 | 1 to 100 | Clc1cccc(Nc2ncnc3[nH]c(-c4ccc(NCc5ccccc5)cc4)cc23)c1
19 | 1 to 100 | C[C@@H](Nc1ncnc2[nH]c(-c3ccc(NS(C)(=O)=O)cc3)cc12)c1ccccc1
20 | 1 to 100 | COc1ccc(-c2csc(-c3cc4c(Nc5cccc(Cl)c5)ncnc4[nH]3)n2)cc1
21 | 1 to 100 | CN(C)C=Nc1ccc(-c2cc3c(Nc4cccc(Cl)c4)ncnc3[nH]2)cc1
22 | 1 to 100 | CN1CCN(C(=O)c2ccc(-c3cc4c(Nc5cccc(Cl)c5)ncnc4[nH]3)cc2)CC1
23 | 1 to 100 | C[C@@H](Nc1ncnc2[nH]c(-c3cccc(NCc4ccccc4)c3)cc12)c1ccccc1
24 | 1 to 100 | OCCN(CCO)Cc1cc2c(Nc3cccc(Cl)c3)ncnc2[nH]1
25 | 1 to 100 | COc1cc(-c2cc3c(Nc4cccc(Cl)c4)ncnc3[nH]2)ccc1OCc1ccccc1
26 | 1 to 100 | COC(=O)Nc1ccc(-c2cc3c(Nc4cccc(Cl)c4)ncnc3[nH]2)cc1
27 | 1 to 100 | CC(C)S(=O)(=O)Nc1ccc(-c2cc3c(Nc4cccc(Cl)c4)ncnc3[nH]2)cc1
28 | 1 to 100 | O=S(=O)(Nc1ccc(-c2cc3c(Nc4cccc(Cl)c4)ncnc3[nH]2)cc1)c1ccccc1
29 | 1 to 100 | CN(C)C=Nc1cccc(-c2cc3c(Nc4cccc(Cl)c4)ncnc3[nH]2)c1
30 | 1 to 100 | COc1cc(-c2cc3c(Nc4cccc(C)c4)ncnc3[nH]2)ccc1OCc1ccccc1
31 | 1 to 100 | COc1cc(-c2cc3c(Nc4cccc(Cl)c4)ncnc3[nH]2)ccc1O
32 | 1 to 100 | CNC(=S)Nc1cccc(-c2cc3c(N[C@H](C)c4ccccc4)ncnc3[nH]2)c1
33 | 1 to 100 | CCNC(=O)Nc1ccc(-c2cc3c(N[C@H](C)c4ccccc4)ncnc3[nH]2)cc1
34 | 1 to 100 | O=C(Nc1ccccc1)Nc1cccc(-c2cc3c(Nc4cccc(Cl)c4)ncnc3[nH]2)c1

Row | IC50 [nM] | SMILES
35 | 1 to 100 | COc1cc(-c2cc3c(Nc4cccc(C)c4)ncnc3[nH]2)ccc1O
36 | 1 to 100 | NC(=S)c1cc2c(Nc3cccc(Cl)c3)ncnc2[nH]1
37 | 1 to 100 | CC(C)S(=O)(=O)Nc1cccc(-c2cc3c(Nc4cccc(Cl)c4)ncnc3[nH]2)c1
38 | 1 to 100 | O=C(c1cc2c(Nc3cccc(Cl)c3)ncnc2[nH]1)N1CCOCC1
39 | 1 to 100 | COc1ccc(-c2cc3c(N[C@H](C)c4ccccc4)ncnc3[nH]2)cc1
40 | 1 to 100 | CCS(=O)(=O)Nc1ccc(-c2cc3c(Nc4cccc(Cl)c4)ncnc3[nH]2)cc1
41 | 1 to 100 | CC(C)C(=Nc1ccc(-c2cc3c(Nc4cccc(Cl)c4)ncnc3[nH]2)cc1)N(C)C
42 | 1 to 100 | Clc1cccc(Nc2ncnc3[nH]c(-c4cccc(N=CN5CCOCC5)c4)cc23)c1
43 | 1 to 100 | CCS(=O)(=O)Nc1cccc(-c2cc3c(N[C@H](C)c4ccccc4)ncnc3[nH]2)c1
44 | 1 to 100 | CN1CCN(C=Nc2ccc(-c3cc4c(Nc5cccc(Cl)c5)ncnc4[nH]3)cc2)CC1
45 | 1 to 100 | CC(C)S(=O)(=O)Nc1ccc(-c2cc3c(N[C@H](C)c4ccccc4)ncnc3[nH]2)cc1
46 | 1 to 100 | CC(C)OC(=O)Nc1ccc(-c2cc3c(Nc4cccc(Cl)c4)ncnc3[nH]2)cc1
47 | 1 to 100 | C[C@@H](Nc1ncnc2[nH]c(-c3cccc(N=CN(C)C)c3)cc12)c1ccccc1
48 | 1 to 100 | CS(=O)(=O)Nc1cccc(-c2cc3c(Nc4cccc(Cl)c4)ncnc3[nH]2)c1
49 | 1 to 100 | CCN(C=Nc1ccc(-c2cc3c(Nc4cccc(Cl)c4)ncnc3[nH]2)cc1)CC
50 | 1 to 100 | CN1CCN(Cc2cc3c(Nc4cccc(Cl)c4)ncnc3[nH]2)CC1
